Laboratory results taken from US20210106703A1, “RADIOIMMUNOCONJUGATES IN COMBINATION WITH OTHER DRUGS AS TREATMENT AGAINST NHL” (Nordic Nanovector ASA, priority 2017, published 2021).

Experiments:
[1] = test system: OCI-Ly8 cells; assay: Cell cycle analysis (PI, Muse flow cytometer); type: cell-based, human; settings: OCI-Ly8, 1 μM inhibitor + ^177Lu-lilotomab, versus ^177Lu-lilotomab alone
Experimental: Cells were harvested at 0 […], and fixed in 70% ethanol at -20° C. for at least 3 h. After staining with the Muse® Cell Cycle Assay Kit (Merck Millipore, Molsheim, France) using propidium iodide in the dark at room temperature for 30 min, cell cycle distribution was analyzed using a Muse® flow cytometer. The percentage of cells in the G0/G1, S and G2/M was calculated (mean of three experiments in triplicate) and the effect of WEE-1 and MYT-1 kinase inhibitors on the cell cycle was assessed.

[2] = test system: Ramos cells; assay: Proliferation study with Wee-1/Myt-1 inhibitors and ^177Lu-lilotomab; type: cell-based, human; settings: inhibitor 1 μM + ^177Lu-lilotomab 6 MBq/mL (RIT) for 18 h, 6 days after start
Experimental: (§1) Cells were treated for 18 h with 1 μM of the selective Wee-1 kinase inhibitor MK-1775 (Selleckchem, Houston, USA) or of the dual Wee-1/Myt-1 inhibitor PD-166285 (EMD Merck Millipore/Calbiochem, Molsheim, France) alone or in combination with 6 MBq/mL, 2 MBq/mL and 0.5 MB/mL of ^177Lu-lilotomab for Ramos, Rec-1 and DOHH2 cells respectively. At different times after start of incubation, proteins were extracted to measure the CDK1 phosphorylation levels, in parallel, proliferation was determined and at 18 h and 24 h after start of incubation, the percentage of cells in G2/M was assessed (experiments were performed three time except the cell cycle analysis).
(§2) The activity used for the treatment with ^177Lu-lilotomab was chosen to decrease the proliferation to about 50% for the three cell lines compared with non-treated cells.
(§3) Inhibition of G2/M cell cycle arrest radiosensitises radioresistant Ramos model. The Bliss independence mathematical model was next used to investigate the role of MK-1775 or PD-166285 on the response to ^177Lu-lilotomab. A theoretical therapeutic efficacy was calculated for the two combinations (MK-1775 or PD-166285) in the three cell lines. And the comparison between the experimental and the theoretical curves was done.
(§4) Theoretical efficacyRIT+inhib=EfficacyRIT+Efficacyinhib−(EfficacyRIT×Efficacyinhib)

[3] = test system: Rec-1 cells; assay: as above; type: cell-based, human; settings: Rec-1, inhibitor 1 μM + ^177Lu-lilotomab 2 MBq/mL for 18 h, versus either alone
Experimental: as §1, §2, §3, §4

[4] = test system: SUDHL-6 cells; assay: Alamar Blue cytotoxicity study; type: cell-based, human; settings: for Combination Index (Chou-Talalay): 120 h
Experimental: Cells were treated with either Humalutin, venetoclax or a combination of both and seeded into 96 well-plates. At each time point after treatment, cells were incubated with Alamar Blue (Thermo Fisher, DALL1100) for 4 hours and fluorescence measurements were performed using a multiplate reader Fluoroskan ascent FL to assess cell proliferation and viability. All experiments were done in duplicates using 2 samples in each experiment. Data were normalized to the untreated controls.
Cells were incubated with 0.25, 0.5, 1, 2.5 or 5 μg/ml of Humalutin in cell culture flasks and incubated at 37° C./5% CO2. After 18-20 hours cells were washed and resuspended in fresh medium. Cell bound activity after washing was measured using a calibrated gamma detector (Cobra II auto-gamma detector, Packard Instrument Company, Meriden, Conn., USA). Cell concentration and viability were also measured after washing using Guava ViaCount Cell Dispersal Reagent for Flow Cytometry (Merck GaA, Darmstadt, Germany) and measured in a Guava EasyCyte 12HT (Merck KGaA, Darmstadt, Germany) to determine how well the cells survived the incubation. Cells were seeded in 96 well plates. Alamar blue viability measurements were performed 120 h after seeding.
Cells were incubated with either 0 (control), 0.5 μg/ml or 1 μg/ml Humalutin for 18 to 20 hours. Cells were then washed and resuspended in fresh medium. Cell bound activity after washing was measured using a calibrated gamma detector (Cobra II auto-gamma detector, Packard Instrument Company, Meriden, Conn., USA). Cell concentration and viability were also measured after washing using Guava ViaCount Cell Dispersal Reagent for Flow Cytometry (Merck GaA, Darmstadt, Germany) and measured in a Guava EasyCyte 12HT (Merck KGaA, Darmstadt, Germany) to determine how well the cells survived the incubation. […] Cytotoxic effect was measured using Alamar blue cell viability assay.
The Chou-Talalay model was used for synergy calculations using the Compusyn software. R (goodness of fit) was calculated for the individual treatments and should be over 0.90 in in vitro culture experiments in order to use the calculated combination index (CI) with confidence. The CI is an indication of synergy: 0-0.9 is considered synergy. Synergism grading was used as described in Table 13, WO2006004917A2.

[5] = test system: CD3-/CD20+ cells from biopsies of patients with DLBCL or FL; settings: 4 patient biopsies, 18 h exposure, day 4
Experimental: Frozen human biopsies from patients with DLBCL or FL were obtained from CHU de Montpellier Plateforme CRB/Hemodiag. Typically, cells were defrosted and grown at 0.5×10^6 cells/mL in 12-well plates at 37° C. in a humidified atmosphere of 95% air/5% CO2. Culture medium consisted of RPMI medium supplemented with 20% heat-inactivated fetal bovine serum, antibiotics ([…] penicillin and 100 μg/ml streptomycin), 50 ng/mL CD40L (His tagged; R&D system) and 5 μg/mL anti-his-tag antibody (R&D system, Abingdon, UK). After 5 h, they were treated with increasing amount of ^177Lu-lilotomab (0 to 6 MBq/mL) combined or not with MK-1775 or PD-166285 (1 μM) for 18 h. At the end of incubation, 50% of cells were analyzed by flow cytometry and the remaining cells were collected, centrifuged and washed twice with medium before being seeded in 12-well plates for 3 days more. After 3 days, cells were collected and analyzed by flow cytometry. Live/Dead fixable dead cell stain (Fisher scientific), anti-CD45, CD3, CD19, CD20 and CD10 mAbs (BD Pharmigen, Le pont de Claix, France) and anti-Kappa mAb (DAKO, Les Ulis, France) were used and analyzed by flow cytometry to determine quantity and proportion of tumor and non-tumor cells alive.

Molecule: C=CCn1c(=O)c2cnc(Nc3ccc(N4CCN(C)CC4)cc3)nc2n1-c1cccc(C(C)(C)O)n1 [MK-1775]
- Proportion of cells in G2/M, inhibitor combined with ^177Lu-lilotomab [1]: reduction of the fraction of G2/M cells
- Proliferation (treated/untreated cells) [2]: ~10%
- Proliferation (treated/untreated cells) [3]: statistically reduced the proliferation

Molecule: CC1(C)CCC(CN2CCN(c3ccc(C(=O)NS(=O)(=O)c4ccc(NCC5CCOCC5)c([N+](=O)[O-])c4)c(Oc4cnc5[nH]ccc5c4)c3)CC2)=C(c2ccc(Cl)cc2)C1 [venetoclax]
- IC50 ([4]; Homo sapiens, SU-DHL-6, read-out: IC50 at 120 h, SUDHL-6, 120 h incubation after seeding): 1.16 µM
- Combination Index (Chou-Talalay) ([4]; SUDHL-6, venetoclax 0.25 + Humalutin 0.5 μg/ml): 0.63
- Combination Index (Chou-Talalay) ([4]; SUDHL-6, venetoclax 0.25 + Humalutin 1 μg/ml): 0.82
- Combination Index (Chou-Talalay) ([4]; SUDHL-6, venetoclax 0.5 + Humalutin 0.5 μg/ml): 0.14
- Combination Index (Chou-Talalay) ([4]; SUDHL-6, venetoclax 0.5 + Humalutin 1 μg/ml): 0.28
- Combination Index (Chou-Talalay) ([4]; SUDHL-6, venetoclax 1 + Humalutin 0.5 μg/ml): 0.71
- Combination Index (Chou-Talalay) ([4]; SUDHL-6, venetoclax 1 + Humalutin 1 μg/ml): 0.41
- Combination Index (Chou-Talalay) ([4]; SUDHL-6, venetoclax 2.5 + Humalutin 0.5 μg/ml): 0.47
- Combination Index (Chou-Talalay) ([4]; SUDHL-6, venetoclax 2.5 + Humalutin 1 μg/ml): 0.41

B1: Lutetium-177 [^177Lu]-lilotomab satetraxetan (conjugate, chains of the INN, looked up)
VH: EIQLQQSGPELVKPGASVKVSCKASGYSFTDYNMYWVKQSHGKSLEWIGYIDPYNGDTTYNQKFKGKATLTVDKSSSTAFIHLNSLTSEDSAVYYCARSPYGHYAMDYWGQGTSVTVSS
VL: DIVMTQSHKLLSTSVGDRVSITCKASQDVSTAVDWYQQKPGQSPKLLINWASTRHTGVPDRFTGSGSGTDYTLTISSMQAEDLALYYCRQHYSTPFTFGSGTKLEIK
modifications: 177Lu satetraxetan chelator conjugate
- Proportion of tumor cells [5]: reduced the proportion of tumor cells
